Results on one molecule are retold here after ChEMBL document CHEMBL5046244, “Targeted Covalent Inhibition of Small CTD Phosphatase 1 to Promote the Degradation of the REST Transcription Factor in Human Cells” (J Med Chem, 2022).

Calls of active or inactive are those of the source. The rule behind the calls is not given here.

Test [1] addresses T1, Tyrosine-protein phosphatase non-receptor type 22 (Homo sapiens) (UniProt Q9Y2R2).
T1 sequence (whole entry): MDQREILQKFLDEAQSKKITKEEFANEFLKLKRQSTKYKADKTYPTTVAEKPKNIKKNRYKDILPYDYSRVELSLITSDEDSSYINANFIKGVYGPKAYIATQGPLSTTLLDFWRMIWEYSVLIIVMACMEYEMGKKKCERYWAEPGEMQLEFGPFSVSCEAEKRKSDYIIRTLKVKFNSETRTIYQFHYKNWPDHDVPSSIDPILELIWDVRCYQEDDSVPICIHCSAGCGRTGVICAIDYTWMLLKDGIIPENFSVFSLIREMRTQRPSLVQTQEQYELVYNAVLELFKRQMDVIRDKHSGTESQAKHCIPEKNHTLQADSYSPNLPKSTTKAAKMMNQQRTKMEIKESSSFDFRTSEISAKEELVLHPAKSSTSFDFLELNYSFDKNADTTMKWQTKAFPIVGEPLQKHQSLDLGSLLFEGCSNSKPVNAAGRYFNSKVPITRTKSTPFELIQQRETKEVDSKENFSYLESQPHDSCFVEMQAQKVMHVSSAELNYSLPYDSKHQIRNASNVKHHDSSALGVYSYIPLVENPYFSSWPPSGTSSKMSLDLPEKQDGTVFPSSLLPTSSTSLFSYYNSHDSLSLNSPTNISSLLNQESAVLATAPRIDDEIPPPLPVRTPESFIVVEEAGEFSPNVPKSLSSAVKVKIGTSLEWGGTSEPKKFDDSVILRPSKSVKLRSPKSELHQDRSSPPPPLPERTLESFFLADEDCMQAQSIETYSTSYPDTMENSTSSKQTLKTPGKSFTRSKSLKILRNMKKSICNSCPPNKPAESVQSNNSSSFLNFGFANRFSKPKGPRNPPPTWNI
The experiment in a line: Inhibition of LYP (unknown origin) at 25 to 30 uM. Particulars: dose 25-30 µM.

Test [2] has as its system HEK293. The experiment in a line: Recovery of REST protein expression in HEK293 cells at 10 uM incubated for 2 days with media replenishment for every 24 hrs followed by compound washout and measured after 3 days by immunoblot analysis relative to control. It is filed as functional, Homo sapiens. Particulars: time 2 day. Background: Immunoblotting shows a protein as a band on a membrane.

Test [3] deals with HEK293. The experiment in a line: Downregulation of REST protein expression in HEK293 cells at 10 uM incubated for 48 to 72 hrs by immunoblot analysis. The class given is functional, cell-based. Particulars: Homo sapiens, time lower […], time upper 72.0 hrs.
The nature of test [4]: Downregulation of REST protein expression in HEK293 cells at 3 uM incubated for 3 days with media replenishment for every 24 hrs by immunoblot analysis relative to control. It is filed as functional, Homo sapiens. Particulars: time 3 day.
A short description of test [5]: Downregulation of REST protein expression in HEK293 cells at 5 uM incubated for 3 days with media replenishment for every 24 hrs by immunoblot analysis relative to control. The class given is functional, Homo sapiens. As to conditions: time 3 day.
The target of test [6] is T2, Tyrosine-protein phosphatase non-receptor type 2 (Homo sapiens) (UniProt P17706).
T2 sequence (whole entry): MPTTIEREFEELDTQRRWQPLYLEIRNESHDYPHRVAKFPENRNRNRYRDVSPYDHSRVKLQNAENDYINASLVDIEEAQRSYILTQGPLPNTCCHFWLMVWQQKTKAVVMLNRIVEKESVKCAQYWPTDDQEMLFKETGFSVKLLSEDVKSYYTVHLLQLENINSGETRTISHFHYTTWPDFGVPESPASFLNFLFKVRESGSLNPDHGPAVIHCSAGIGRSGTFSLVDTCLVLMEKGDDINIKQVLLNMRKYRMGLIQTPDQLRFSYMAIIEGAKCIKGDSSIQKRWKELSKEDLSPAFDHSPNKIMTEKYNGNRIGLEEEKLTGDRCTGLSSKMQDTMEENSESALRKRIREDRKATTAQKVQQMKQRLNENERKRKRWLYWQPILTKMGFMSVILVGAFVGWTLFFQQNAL
The experiment in a line: Inhibition of TCPTP (unknown origin) at 25 to 30 uM. Particulars: dose 25-30 µM.

Test [7] is described as follows: Downregulation of REST protein expression in HEK293 cells transfected with wild type SCP1 at 10 uM incubated for 48 hrs with media replenishment for every 24 hrs by immunoblot analysis relative to control. The class given is functional, Homo sapiens.
Test [8] deals with Schizosaccharomyces pombe. The experiment in a line: Time dependent inhibition of Schizosaccharomyces pombe wild type FCP1 (148 to 641 residues) using pNPP as substrate measured upto 18 hrs by absorbance based assay. Particulars: time hrs <=18.
The nature of test [9]: Downregulation of REST protein expression in HEK293 cells at 10 uM incubated for 3 days with media replenishment for every 24 hrs by immunoblot analysis relative to control. The class given is functional, Homo sapiens. As to conditions: time 3 day.
For test [10], the system named is HEK293. Briefly: Recovery of REST protein expression in HEK293 cells at 10 uM incubated for 2 days with media replenishment for every 24 hrs followed by compound washout and measured after 24 to 48 hrs by immunoblot analysis relative to control. The class given is functional, Homo sapiens. Particulars: time 2 day.
For test [11], the species on record is Homo sapiens. Briefly: Covalent inhibition of human SCP1 C181A mutant using pNPP as substrate preincubated for 0.5 to 8 hrs followed by substrate addition by absorbance based analysis. Particulars: time 0.5-8 hrs.
Test [12] is filed under the species Homo sapiens. The experiment in a line: Covalent inhibition of human SCP1 C148A mutant using pNPP as substrate preincubated for 0.5 to 8 hrs followed by substrate addition by absorbance based analysis. Particulars: time 0.5-8 hrs.
The species entered for test [13] is Homo sapiens. The experiment in a line: Inhibition of PP1 (unknown origin) using pNPP as substrate incubated for 4 hrs by absorbance based analysis.
A short description of test [14]: Upregulation of SCN2 mRNA expression in HEK293 cells assessed as fold increase by qRT-PCR analysis. It is filed as functional, Homo sapiens.

With `O=C(NCCCNS(=O)(=O)c1ccc(OC(F)(F)F)cc1)C1=Cc2ccccc2S1(=O)=O`, the inhibition entry in test [1], in [6], in test [8] and in test [13] was “inactive” in each case. Also, the Activity in test [2] was found to be 77%; in test [4] it was 40%; in test [5], 75%; in test [7], 80%; in [9], 7%; in test [10], 50%. Besides, the result in test [3] was Active. For the same molecule, the inhibition result in test [11] and in test [12] was “Active” each time. For the same molecule, the “fold change (FC)” value in [14] is 2.
